Patent US20250243196A1, “CITRON KINASE INHIBITORS” (The Cleveland Clinic Foundation, priority 2021, published 2025)

Columns and labels:
[1] = biological target: NanoLuc-CITK (full-length human CITK) (Homo sapiens (Human), UniProt O14578); experiment: NanoBRET intracellular target engagement assay; assay type: cell-based
Description: In-cell Kd values were evaluated with a NanoBRET Target Engagement Assay essentially as recommended by the manufacturer (Promega Corporation—for details see https://www.promega.com/resources/technologies/nanoluc-luciferase-enzyme/cellular-target-engagement/).
HEK293T cells were transfected with 5.0 μg/mL sterile NanoLuc-CITK DNA, 5.0 μg/mL Transfection Carrier DNA, and 30 μL/mL FugeneHD® (Promega) in Opti-Mem™ (Thermo) media at a cell density of 250,000 cells/mL. […] 5 μL of the 25× Tracer K10 solution was added to each well. Next, designated inhibitors were prepared from powder as 10 mM DMSO stocks and then further diluted to 10× the final assay concentration in Opti-Mem™. 12-pt dose-response curves were prepared by 3×-serial dilution. […] A 3× Complete Substrate+Inhibitor solution, containing 6 mL of Opti-Mem™, 36 μL of NanoBRET Nano-Glo Substrate, and 12 μL Extracellular NanoLuc Inhibitor was freshly prepared for each plate. 50 μL of the 3× Complete Substrate+Inhibitor solution was added to all wells and the plate was incubated for 2 min with 500 RPM shaking. The bottom of the plates were covered with black plate seals and then measured on a Cytation 5 plate reader (Biotek) with a NanoBRET Filter Cube (Biotek; 450/50 emission & 610LP emission). Background corrected BRET ratios (in mBU) were calculated in Excel and IC50's were subsequently extracted using four-parameter non-linear regression in GraphPad Prism 8.

Citron kinase [2] = biological target: T1, Citron kinase (Homo sapiens (Human), UniProt O14578); experiment: Radiometric citron kinase assay (Eurofins Cat #16-040KP); assay type: biochemical
Procedure, shortened: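 Radiometric KinaseProfiler format: test compound incubated with kinase, substrate, cofactors and radiolabelled ATP; unreacted ATP washed away and radiolabelled phosphate incorporated into substrate measured. IC50 derived from inhibition of phosphorylation. Values are means of at least two independent assays.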

Citron kinase [3] = biological target: T1, Citron kinase; experiment: TR-FRET citron kinase assay (Eurofins Cat #2628); assay type: biochemical; conditions: mean of at least two independent assays; read-out: TR-FRET CitK IC50
Source text: Compounds were screened for biochemical kinase activity (Eurofins Discovery, France) using one of two assays. […] All values in Table 1 are the mean of at least two independent assays.

AKT-1 = AKT-1 (Homo sapiens (Human), UniProt P31749); experiment: KinaseProfiler radiometric assay (14-276KP); assay type: biochemical; conditions: mean of at least two independent experiments
Source text: (§1) In another aspect, disclosed is a method of inhibiting citron kinase in a sample, comprising contacting the sample with a compound described herein (e.g., a compound of formula (I) or a pharmaceutically acceptable salt thereof), or a pharmaceutical composition described herein (e.g., a pharmaceutical composition comprising a compound of formula (I) or a pharmaceutically acceptable salt thereof), in an amount effective to inhibit citron kinase. In some embodiments, the step of contacting the sample with the compound comprises administering the compound to a subject (e.g., a subject) suffering from cancer. Methods of determining kinase inhibition are well known in the art. For example, kinase activity of an enzyme and the inhibitory capacity of a test compound can be determined by measuring enzyme specific phosphorylation of a substrate. Commercial assays and kits can be employed. For example, kinase inhibition can be determined using a radiometric binding assay, such as using KinaseProfiler™ technology (Eurofins Discovery). This assay method directly detects product formation without the use of modified substrates or coupling enzymes. Test compounds are incubated with kinase, substrate, required cofactors and radioisotope labeled ATP. Following incubation, unreacted radioactive ATP is removed by washing and incorporation of the radiolabeled phosphate into the kinase substrate is assayed to detect phosphoryltransferase activity, which is directly proportional to the amount of phosphorylated substrate. Inhibition of the kinase by a kinase inhibitor prevents phosphorylation of the substrate and thereby limits the incorporation of radiolabeled phosphate. Such an assay is compatible with a microwell assay format, allowing simultaneous determination of IC50 of multiple compounds.
(§2) The effect of various compounds on the inhibition of other kinases has also been determined. Table 2 reports measured IC50 values; value units are nanomolar inhibition.

ROCK-1 = ROCK-1 (Homo sapiens (Human), UniProt Q13464); experiment: KinaseProfiler radiometric assay (14-601KP); assay type: biochemical; conditions: mean of at least two independent experiments
Source text: as §1, §2

TRK-B = TRK-B (Homo sapiens (Human), UniProt Q16620); experiment: KinaseProfiler radiometric assay (14-507KP); assay type: biochemical; conditions: mean of at least two independent experiments
Source text: as §1, §2

IKKβ = IKKβ (Homo sapiens (Human), UniProt O14920); experiment: KinaseProfiler radiometric assay (14-485KP); assay type: biochemical; conditions: mean of at least two independent experiments
Source text: as §1, §2

PKAα = PKAα (Homo sapiens (Human), UniProt P17612); experiment: KinaseProfiler radiometric assay (14-440KP); assay type: biochemical; conditions: mean of at least two independent experiments
Source text: as §1, §2

AUR-B = AUR-B (Homo sapiens (Human), UniProt Q96GD4); experiment: KinaseProfiler radiometric assay (14-835KP); assay type: biochemical; conditions: mean of at least two independent experiments
Source text: as §1, §2

ROCK-2 = ROCK-2 (Homo sapiens (Human), UniProt O75116); experiment: KinaseProfiler radiometric assay (14-451KP); assay type: biochemical; conditions: mean of at least two independent experiments
Source text: as §1, §2

VCaP cells = experiment: Androgen-induced citron kinase expression, western blotting; assay type: cell-based; conditions: low doses of androgen, 48 hours
Description: (§3) FIG. 1A: LNCaP (top panel) and VCaP cells (bottom panel) were treated with increasing doses of the synthetic androgen R1881 for 48 hours. CIT and j-actin expression were analyzed by western blotting. FIG. 1B: LNCaP (left panel) and VCaP cells (right panel) were treated with increasing doses of the natural androgen dihydrotestosterone (DHT) and analyzed as for FIG. 1A.

LNCaP cells = experiment: as above; assay type: cell-based; conditions: low doses of androgen, 48 hours
Description: as §3

[4] = HEK293T cells transfected with NanoLuc-CITK, Tracer K10 1 μM, 2 hours
[5] = mean of at least two independent assays, read-out: Radiometric CitK IC50

Sequence of NanoLuc-CITK (full-length human CITK) (O14578 other isoform, or with tags, fused parts or gaps): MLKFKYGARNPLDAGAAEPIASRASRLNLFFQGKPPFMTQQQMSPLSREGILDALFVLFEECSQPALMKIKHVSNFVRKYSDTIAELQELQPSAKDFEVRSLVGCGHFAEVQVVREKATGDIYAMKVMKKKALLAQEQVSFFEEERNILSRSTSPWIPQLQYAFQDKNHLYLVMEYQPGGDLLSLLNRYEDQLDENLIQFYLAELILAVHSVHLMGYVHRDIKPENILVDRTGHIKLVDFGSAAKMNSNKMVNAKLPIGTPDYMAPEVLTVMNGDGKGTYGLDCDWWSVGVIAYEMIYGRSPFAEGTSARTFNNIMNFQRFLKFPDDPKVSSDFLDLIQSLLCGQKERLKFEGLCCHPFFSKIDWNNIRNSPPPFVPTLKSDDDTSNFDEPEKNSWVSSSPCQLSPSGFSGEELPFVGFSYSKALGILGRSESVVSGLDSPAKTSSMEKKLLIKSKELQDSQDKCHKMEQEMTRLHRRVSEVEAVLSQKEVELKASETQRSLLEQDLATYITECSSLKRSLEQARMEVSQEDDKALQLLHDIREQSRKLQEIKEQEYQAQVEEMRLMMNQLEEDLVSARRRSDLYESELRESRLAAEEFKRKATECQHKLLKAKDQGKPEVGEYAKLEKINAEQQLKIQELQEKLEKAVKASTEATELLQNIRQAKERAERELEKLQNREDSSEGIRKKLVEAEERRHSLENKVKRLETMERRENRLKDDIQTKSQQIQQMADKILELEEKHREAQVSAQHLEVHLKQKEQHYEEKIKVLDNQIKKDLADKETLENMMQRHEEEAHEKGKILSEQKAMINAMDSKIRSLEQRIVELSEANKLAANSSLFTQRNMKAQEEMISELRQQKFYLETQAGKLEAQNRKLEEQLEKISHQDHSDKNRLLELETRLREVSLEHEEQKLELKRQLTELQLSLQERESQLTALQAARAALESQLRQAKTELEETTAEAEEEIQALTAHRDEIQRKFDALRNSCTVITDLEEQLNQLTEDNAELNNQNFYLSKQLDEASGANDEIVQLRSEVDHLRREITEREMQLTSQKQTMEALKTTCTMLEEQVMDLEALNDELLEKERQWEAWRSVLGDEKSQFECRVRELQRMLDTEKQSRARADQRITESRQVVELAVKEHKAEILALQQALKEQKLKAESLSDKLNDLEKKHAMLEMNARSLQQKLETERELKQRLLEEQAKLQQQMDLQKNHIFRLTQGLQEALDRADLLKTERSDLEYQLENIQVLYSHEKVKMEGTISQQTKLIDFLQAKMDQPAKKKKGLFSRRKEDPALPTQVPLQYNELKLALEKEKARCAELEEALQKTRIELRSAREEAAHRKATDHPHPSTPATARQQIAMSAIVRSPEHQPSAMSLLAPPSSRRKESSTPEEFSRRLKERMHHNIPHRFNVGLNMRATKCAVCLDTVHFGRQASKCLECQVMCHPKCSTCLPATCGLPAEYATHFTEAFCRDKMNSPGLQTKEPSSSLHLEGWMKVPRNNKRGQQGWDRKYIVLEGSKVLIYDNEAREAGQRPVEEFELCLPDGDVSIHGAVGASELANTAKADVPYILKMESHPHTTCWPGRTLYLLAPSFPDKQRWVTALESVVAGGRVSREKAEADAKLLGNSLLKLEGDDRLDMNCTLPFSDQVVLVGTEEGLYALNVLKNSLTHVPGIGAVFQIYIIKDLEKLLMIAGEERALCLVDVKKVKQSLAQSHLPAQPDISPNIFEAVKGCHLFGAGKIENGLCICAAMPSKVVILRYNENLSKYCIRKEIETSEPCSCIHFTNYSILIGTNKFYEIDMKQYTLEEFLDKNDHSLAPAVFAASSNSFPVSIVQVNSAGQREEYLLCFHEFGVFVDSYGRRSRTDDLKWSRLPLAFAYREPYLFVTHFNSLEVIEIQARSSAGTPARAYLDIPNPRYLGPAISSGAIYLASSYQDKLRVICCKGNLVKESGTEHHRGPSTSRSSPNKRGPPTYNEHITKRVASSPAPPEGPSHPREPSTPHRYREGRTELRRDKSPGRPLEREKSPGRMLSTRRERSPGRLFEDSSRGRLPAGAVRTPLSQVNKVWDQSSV
Sequence of TRK-B (Q16620 32-822): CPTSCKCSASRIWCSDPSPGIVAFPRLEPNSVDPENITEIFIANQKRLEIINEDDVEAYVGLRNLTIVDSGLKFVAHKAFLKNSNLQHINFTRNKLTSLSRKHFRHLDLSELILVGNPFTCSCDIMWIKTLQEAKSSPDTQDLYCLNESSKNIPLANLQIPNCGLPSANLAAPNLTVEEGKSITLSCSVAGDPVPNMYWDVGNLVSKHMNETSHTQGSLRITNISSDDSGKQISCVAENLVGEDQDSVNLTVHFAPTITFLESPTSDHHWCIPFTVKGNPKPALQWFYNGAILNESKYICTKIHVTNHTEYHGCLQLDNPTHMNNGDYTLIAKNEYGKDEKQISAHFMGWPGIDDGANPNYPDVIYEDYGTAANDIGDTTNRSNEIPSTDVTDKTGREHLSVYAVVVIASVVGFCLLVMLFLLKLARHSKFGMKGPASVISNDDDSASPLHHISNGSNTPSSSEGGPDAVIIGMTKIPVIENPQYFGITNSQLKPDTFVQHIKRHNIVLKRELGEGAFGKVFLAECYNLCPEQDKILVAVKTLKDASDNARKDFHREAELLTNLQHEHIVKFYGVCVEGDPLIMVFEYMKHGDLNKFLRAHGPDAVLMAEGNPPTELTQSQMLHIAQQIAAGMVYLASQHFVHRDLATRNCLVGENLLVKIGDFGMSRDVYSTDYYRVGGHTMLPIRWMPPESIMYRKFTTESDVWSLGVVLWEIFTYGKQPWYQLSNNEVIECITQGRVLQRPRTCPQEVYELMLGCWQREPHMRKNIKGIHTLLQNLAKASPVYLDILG
Sequence of AKT-1 (P31749 whole entry): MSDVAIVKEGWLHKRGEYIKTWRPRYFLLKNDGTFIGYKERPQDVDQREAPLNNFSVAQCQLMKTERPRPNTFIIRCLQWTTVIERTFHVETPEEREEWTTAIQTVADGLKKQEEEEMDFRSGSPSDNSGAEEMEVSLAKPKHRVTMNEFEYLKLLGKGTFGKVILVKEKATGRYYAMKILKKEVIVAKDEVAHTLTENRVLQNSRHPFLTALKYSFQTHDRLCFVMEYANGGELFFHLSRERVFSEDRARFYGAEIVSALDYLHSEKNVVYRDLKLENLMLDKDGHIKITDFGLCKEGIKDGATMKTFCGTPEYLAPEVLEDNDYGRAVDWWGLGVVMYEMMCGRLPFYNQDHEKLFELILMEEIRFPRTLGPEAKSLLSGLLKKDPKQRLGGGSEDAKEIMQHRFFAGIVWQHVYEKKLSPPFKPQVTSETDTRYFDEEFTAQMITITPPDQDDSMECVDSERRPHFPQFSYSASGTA
Sequence of AUR-B (Q96GD4 whole entry): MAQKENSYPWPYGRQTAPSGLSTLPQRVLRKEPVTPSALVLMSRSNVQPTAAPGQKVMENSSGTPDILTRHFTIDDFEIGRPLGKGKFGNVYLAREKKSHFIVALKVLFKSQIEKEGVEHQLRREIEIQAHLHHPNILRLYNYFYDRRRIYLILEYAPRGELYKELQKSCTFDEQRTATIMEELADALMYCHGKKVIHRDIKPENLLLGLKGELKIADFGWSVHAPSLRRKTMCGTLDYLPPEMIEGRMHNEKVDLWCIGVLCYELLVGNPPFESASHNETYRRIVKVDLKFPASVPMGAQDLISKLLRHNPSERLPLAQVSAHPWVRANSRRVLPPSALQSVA
Sequence of IKKβ (O14920 whole entry): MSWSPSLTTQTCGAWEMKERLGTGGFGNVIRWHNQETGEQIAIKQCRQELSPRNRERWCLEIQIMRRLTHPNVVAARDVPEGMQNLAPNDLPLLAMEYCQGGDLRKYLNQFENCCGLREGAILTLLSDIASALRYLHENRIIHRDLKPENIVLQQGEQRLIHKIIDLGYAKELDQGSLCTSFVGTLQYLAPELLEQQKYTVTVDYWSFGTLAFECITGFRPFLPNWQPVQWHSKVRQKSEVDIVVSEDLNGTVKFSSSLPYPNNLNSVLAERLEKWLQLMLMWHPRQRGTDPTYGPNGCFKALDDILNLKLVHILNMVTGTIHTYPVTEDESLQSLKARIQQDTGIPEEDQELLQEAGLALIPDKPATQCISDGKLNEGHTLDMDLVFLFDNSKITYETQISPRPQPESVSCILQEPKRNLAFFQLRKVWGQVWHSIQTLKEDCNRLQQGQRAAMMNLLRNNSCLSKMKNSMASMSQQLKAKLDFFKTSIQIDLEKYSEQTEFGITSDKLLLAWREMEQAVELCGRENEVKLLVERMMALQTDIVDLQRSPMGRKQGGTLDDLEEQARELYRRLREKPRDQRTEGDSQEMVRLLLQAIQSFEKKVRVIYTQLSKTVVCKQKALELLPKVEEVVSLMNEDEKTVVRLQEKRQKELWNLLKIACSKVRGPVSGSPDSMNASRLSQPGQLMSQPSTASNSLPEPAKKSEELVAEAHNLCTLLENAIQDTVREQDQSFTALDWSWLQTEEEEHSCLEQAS

SMILES | IC50 (Citron kinase [2]; [5]) [nM] | IC50 (IKKβ) [nM] | IC50 (PKAα) [nM] | IC50 (ROCK-2) [nM] | other results
Cc1cc2c(-c3ccc(NC(=O)[C@H](N)CC(C)(C)C)cc3C)cncc2[nH]1 [6-Azaindole Control, reference compound] | – | – | – | – | NanoBRET IC50 (nM) [1, 4]: No binding; KD (nM)* ([1]; in-cell KD from IC50 by Cheng-Prussoff, [Tracer K10] = 1 μM, KD Tracer K10 = 0.23 μM): No binding; IC50 (Citron kinase [2]; biochemical assay described in Example 3, read-out: IC50): > 3000 nM
CC(C)C[C@H](N)C(=O)Nc1ccc(-c2ccnc3[nH]ccc23)cc1 [Compound F-8, (2S)-2-Amino-4-methyl-N-[4-(1H-pyrrolo[2,3-b]pyridin-4-yl)phenyl]pentanamide] | 54.1 | – | – | – | IC50 (Citron kinase [3]): 29.9 nM
CC(C)C[C@@H](N)C(=O)Nc1ccc(-c2ccnc3[nH]ccc23)cc1 [Compound F-9, (2R)-2-Amino-4-methyl-N-[4-(1H-pyrrolo[2,3-b]pyridin-4-yl)phenyl]pentanamide] | 12.5 | 111 | 7 | 18 | IC50 (AKT-1): 761 nM; IC50 (ROCK-1): 230 nM; IC50 (TRK-B): > 3000 nM; Kd [1]: 13 nM; IC50 [1, 4]: 67 nM; IC50 (AUR-B): 230 nM; IC50 (Citron kinase [3]): 4.9 nM
CC(C)(C)[C@@H](N)C(=O)Nc1ccc(-c2ccnc3[nH]ccc23)cc1 [Compound F-13, (2R)-2-Amino-3,3-dimethyl-N-[4-(1H-pyrrolo[2,3-b]pyridin-4-yl)phenyl]butanamide] | – | 234 | 1 | 64 | –
NC(C(=O)Nc1ccc(-c2ccnc3[nH]ccc23)cc1)C1CC1 (centres unmarked) [Compound F-18, 2-Amino-2-cyclopropyl-N-[4-(1H-pyrrolo[2,3-b]pyridine-4-yl)phenyl]acetamide] | – | – | – | – | IC50 (Citron kinase [3]): 120 nM
N[C@@H](Cc1ccccc1)C(=O)Nc1ccc(-c2ccnc3[nH]ccc23)cc1 [Compound F-32, (S)-N-(4-(1H-pyrrolo[2,3-b]pyridin-4-yl)phenyl)-2-amino-3-phenylpropanamide] | – | – | 7 | – | IC50 (AKT-1): 1100 nM; IC50 (ROCK-1): 119 nM; IC50 (TRK-B): 469 nM; IC50 (AUR-B): 156 nM
N[C@H](Cc1ccccc1)C(=O)Nc1ccc(-c2ccnc3[nH]ccc23)cc1 [Compound F-33, (R)-N-(4-(1H-pyrrolo[2,3-b]pyridin-4-yl)phenyl)-2-amino-3-phenylpropanamide] | – | – | 3 | – | IC50 (AKT-1): 436 nM; IC50 (ROCK-1): 107 nM; IC50 (TRK-B): 332 nM; IC50 (AUR-B): 104 nM
CN[C@H](CC(C)C)C(=O)Nc1ccc(-c2ccnc3[nH]ccc23)cc1 [Compound F-41, (2R)-4-Methyl-2-(methylamino)-N-[4-(1H-pyrrolo[2,3-b]pyridin-4-yl)phenyl]pentanamide] | – | 345 | 6 | 11 | –
Cc1cc2c(-c3ccc(NC(=O)[C@H](N)CC(C)C)cc3)ccnc2[nH]1 [Compound F-48, (2R)-2-Amino-4-methyl-N-[4-[2-methyl-1H-pyrrolo[2,3-b]pyridin-4-yl]phenyl]pentanamide] | – | 122 | > 3000 | > 3000 | –
Cc1cc(NC(=O)[C@H](N)CC(C)C)ccc1-c1ccnc2[nH]ccc12 [Compound F-58, (2R)-2-Amino-4-methyl-N-[3-methyl-4-(1H-pyrrolo[2,3-b]pyridin-4-yl)phenyl]pentanamide] | – | > 3000 | 82 | 104 | –
Cc1cc(NC(=O)[C@H](N)C(C)(C)C)ccc1-c1ccnc2[nH]ccc12 [Compound F-59, (2R)-2-Amino-3,3-dimethyl-N-[3-methyl-4-(1H-pyrrolo[2,3-b]pyridin-4-yl)phenyl]butanamide] | 49.1 | > 3000 | 319 | 546 | –
CC(C)C[C@@H](N)C(=O)Nc1ccc(-c2ccnc3[nH]ccc23)cc1F [Compound F-70, (2R)-2-Amino-N-[2-fluoro-4-(1H-pyrrolo[2,3-b]pyridin-4-yl)phenyl]-4-methyl-Pentanamide] | 36.9 | 2300 | 43 | 49 | –
COc1cc(-c2ccnc3[nH]ccc23)ccc1NC(=O)[C@H](N)CC(C)C [Compound F-77, (2R)-2-Amino-N-[2-methoxy-4-(1H-pyrrolo[2,3-b]pyridin-4-yl)phenyl]-4-methyl-pentanamide] | – | 829 | 26 | 12 | –
Cc1c[nH]c2nccc(-c3ccc(NC(=O)C(N)Cc4ccccc4)cc3)c12 (centres unmarked) [Compound F-135, 2-Amino-N-[4-(3-methyl-1H-pyrrolo[2,3-b]pyridin-4-yl)phenyl]-3-phenyl-propanamide] | – | – | – | – | IC50 (Citron kinase [3]): 392 nM
Cc1cc2c(-c3ccc(NC(=O)[C@@H](N)[C@H](O)C(C)C)cc3C)ccnc2[nH]1 [Compound F-161, (2S,3R)-2-Amino-3-hydroxy-4-methyl-N-[3-methyl-4-(2-methyl-1H-pyrrolo[2,3-b]pyridin-4-yl)phenyl]pentanamide] | 19 | – | – | – | Kd [1]: 4.3 nM; IC50 [1, 4]: 23 nM
Cc1cc2c(-c3ccc(NC(=O)[C@H](N)[C@@H](O)C(C)C)cc3C)ccnc2[nH]1 [Compound F-162, (2R,3S)-2-Amino-3-hydroxy-4-methyl-N-[3-methyl-4-(2-methyl-1H-pyrrolo[2,3-b]pyridin-4-yl)phenyl]pentanamide] | 5 | – | – | – | Kd [1]: 1.9 nM; IC50 [1, 4]: 10 nM
COc1cc(-c2ccnc3[nH]c(C)cc23)ncc1NC(=O)[C@H](N)CC(C)(C)C [Compound F-171, (2R)-2-Amino-N-[4-methoxy-6-(2-methyl-1H-pyrrolo[2,3-b]pyridin-4-yl)-3-pyridyl]-4,4-dimethyl-pentanamide] | 232 | – | – | – | –
COc1cc(NC(=O)[C@H](N)CC(C)(C)C)cnc1-c1ccnc2[nH]c(C)cc12 [Compound F-172, (2R)-2-Amino-N-[5-methoxy-6-(2-methyl-1H-pyrrolo[2,3-b]pyridin-4-yl)-3-pyridyl]-4,4-dimethyl-pentanamide] | 3000 | – | – | – | –
Cc1cc2c(-c3ccc(NC(=O)[C@H](N)C(C)(C)F)cc3C)ccnc2[nH]1 [Compound F-173, (2S)-2-Amino-3-fluoro-3-methyl-N-[3-methyl-4-(2-methyl-1H-pyrrolo[2,3-b]pyridin-4-yl)phenyl]butanamide] | 461 | – | – | – | –
C[C@]1(O)CC[C@H]2[C@@H]3CCC4=CC(=O)CCC4=C3C=C[C@@]21C [Compound R1881] | – | – | – | – | citron kinase expression (VCaP cells): significant increase; citron kinase expression (LNCaP cells): significant increase
